Where a SMILES comes first, the peptide text is derived from it. The star is where a group is joined. Propionyl = CCC(=O)*
Assays:
hTfR = molecular target: T1, hTfR (Homo sapiens, UniProt P02786); test: Image J quantification of co-localization with hTfR-GFP (control); format: cell-based; details: CHO-hTfR-GFP, 10 μM
T1 construct: Full length coding regions for hLDLR, mLDLR, rLDLR and hTfR were amplified by RT-PCR; expressed in transfected cells

hLDLR = molecular target: T2, hLDLR (Homo sapiens, UniProt P01130); test: Image J quantification of co-localization with hLDLR-GFP; format: cell-based; details: CHO-hLDLR-GFP, 10 μM, n = 3
T2 construct: Full length coding regions for hLDLR, mLDLR, rLDLR and hTfR were amplified by RT-PCR; expressed in transfected cells
T2 sequence (P01130 22-860): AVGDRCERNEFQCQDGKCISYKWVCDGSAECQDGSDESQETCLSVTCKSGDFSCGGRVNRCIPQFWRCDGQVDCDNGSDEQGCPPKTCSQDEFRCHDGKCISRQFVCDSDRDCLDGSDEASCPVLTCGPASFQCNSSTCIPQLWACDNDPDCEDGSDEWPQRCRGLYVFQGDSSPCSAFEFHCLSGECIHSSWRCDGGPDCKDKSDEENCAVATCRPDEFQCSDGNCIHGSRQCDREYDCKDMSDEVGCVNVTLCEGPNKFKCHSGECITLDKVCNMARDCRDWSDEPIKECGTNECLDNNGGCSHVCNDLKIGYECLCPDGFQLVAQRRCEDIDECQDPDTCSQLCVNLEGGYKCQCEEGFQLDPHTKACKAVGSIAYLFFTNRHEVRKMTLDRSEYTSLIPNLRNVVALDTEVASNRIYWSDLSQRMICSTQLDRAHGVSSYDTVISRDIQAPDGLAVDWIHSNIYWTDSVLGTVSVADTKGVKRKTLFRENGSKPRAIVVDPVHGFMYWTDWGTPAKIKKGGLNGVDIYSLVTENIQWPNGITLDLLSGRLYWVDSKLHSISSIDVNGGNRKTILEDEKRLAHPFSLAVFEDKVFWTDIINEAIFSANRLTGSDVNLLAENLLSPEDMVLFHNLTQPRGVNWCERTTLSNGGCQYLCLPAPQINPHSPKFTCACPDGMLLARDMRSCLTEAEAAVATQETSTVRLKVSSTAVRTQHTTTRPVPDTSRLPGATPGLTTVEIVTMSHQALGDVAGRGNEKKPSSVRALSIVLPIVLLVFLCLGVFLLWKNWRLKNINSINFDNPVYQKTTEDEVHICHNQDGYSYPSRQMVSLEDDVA
Experimental: Cells alone or incubated 1 hr at 37°C with phage or peptide conjugates (10μM for S-Tag, fluorescent or siRNA conjugates and 10nM for Fc conjugates) were washed and subsequently fixed with 4% paraformaldehyde, washed again and incubated for 30 min at room temperature in PBS containing 3% BSA with or without 0.1% triton X-100 (Sigma-Aldrich). Cells were washed with PBS and incubated for 1 hr with primary antibodies directed against the hLDLR (rabbit, 1/100, Acris, Herford, Germany), against M13 bacteriophage (mouse, 1/3000, Sigma-Aldrich), against the S-Tag (goat, 1/250, Abcam) or against the Fc (mouse, 1/100, Jackson ImmunoResearch), followed by 3 washes with PBS and incubation with Alexa fluor 488, 594 or 647 anti-rabbit, anti-mouse or anti-goat secondary antibodies (1/800, Invitrogen). Cell nuclei were labeled with Hoechst #33258 (0.5 μg/mL, Invitrogen). […] In some experiments, binding and endocytosis of macromolecular complexes were assessed on live CHO-hLDLR-EGFP cells. […] Following fixation, cell nuclei were labeled with Hoechst#33258. Mounted slides were acquired with a Leica TCS SP2 confocal microscope (Leica Microsystems, Heidelberg, Germany). Images were analyzed using ImageJ software and quantification of co-localization between two markers was performed using the JaCoP plug-in, by calculating Mander’s correlation coefficients from unmodified images.

mLDLR = molecular target: T3, mLDLR (Mus musculus, UniProt P35951); details: in vivo, iv, 0.5 mg/kg
T3 construct: cells expressing LDLR in the zona fasciculata of WT mice; from tissue; host or cells: adrenal gland of C57Bl/6J mice (WT; ldlr-/- as control)
T3 sequence (P35951 22-862): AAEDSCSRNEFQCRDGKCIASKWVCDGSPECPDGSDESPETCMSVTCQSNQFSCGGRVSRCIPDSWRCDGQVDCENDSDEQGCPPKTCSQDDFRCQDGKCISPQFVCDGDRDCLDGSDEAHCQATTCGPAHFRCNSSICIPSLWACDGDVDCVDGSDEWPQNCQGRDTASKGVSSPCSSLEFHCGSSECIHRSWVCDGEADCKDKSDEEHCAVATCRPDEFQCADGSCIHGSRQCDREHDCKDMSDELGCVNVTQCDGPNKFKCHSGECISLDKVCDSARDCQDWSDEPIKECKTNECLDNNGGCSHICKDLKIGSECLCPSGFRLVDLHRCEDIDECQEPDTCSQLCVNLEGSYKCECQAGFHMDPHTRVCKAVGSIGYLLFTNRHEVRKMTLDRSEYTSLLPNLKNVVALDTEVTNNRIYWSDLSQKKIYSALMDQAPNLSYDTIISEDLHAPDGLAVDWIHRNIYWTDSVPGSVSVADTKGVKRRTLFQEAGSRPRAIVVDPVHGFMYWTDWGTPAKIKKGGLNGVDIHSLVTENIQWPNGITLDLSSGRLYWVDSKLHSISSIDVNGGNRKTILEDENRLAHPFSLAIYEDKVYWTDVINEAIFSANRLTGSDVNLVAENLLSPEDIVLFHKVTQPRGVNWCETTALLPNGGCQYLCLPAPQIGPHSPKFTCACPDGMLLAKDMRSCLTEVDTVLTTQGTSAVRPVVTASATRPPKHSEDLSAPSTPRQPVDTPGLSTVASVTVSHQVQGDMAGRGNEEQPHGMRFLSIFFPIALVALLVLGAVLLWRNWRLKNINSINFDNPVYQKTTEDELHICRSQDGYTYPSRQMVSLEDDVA
Experimental: For immunohistochemistry, transcardiac NaCl 0.9% perfusion was followed by 50 mL of PBS 1X- 4% paraformaldehyde (PFA). Mice organs were then removed and snap frozen in cold isopentane. Cryostat (Leica CM-3050-S) sections (14 μm thick) were stored at −80°C. Organ sections were first permeabilized and blocked for 1 hr at room temperature using a solution of PBS 1X, 0.1% Triton X-100 and 3% Bovine Serum Albumin (BSA). Sections were then incubated overnight at 4°C with anti-Fc-A594 (goat, 1/200, Jackson ImmunoResearch) and anti-mLDLR (goat 1/200, R&D Systems), followed by anti-goat-Alexa 488 (donkey, 1/800, Life Technologies) for 1 hr at room temperature. Nuclei were stained with Hoechst (0.5 μg/mL, Life Technologies). Omission of the primary antibody was used as control and no immunostaining was observed. Sections were mounted using Prolong Gold Antifading reagent (Life Technologies) on Superfrost glass slides. Images were taken and processed using a confocal microscope (LSM 700) and Zen software (Zeiss, Jena, Germany).

T1 sequence (P02786 whole entry): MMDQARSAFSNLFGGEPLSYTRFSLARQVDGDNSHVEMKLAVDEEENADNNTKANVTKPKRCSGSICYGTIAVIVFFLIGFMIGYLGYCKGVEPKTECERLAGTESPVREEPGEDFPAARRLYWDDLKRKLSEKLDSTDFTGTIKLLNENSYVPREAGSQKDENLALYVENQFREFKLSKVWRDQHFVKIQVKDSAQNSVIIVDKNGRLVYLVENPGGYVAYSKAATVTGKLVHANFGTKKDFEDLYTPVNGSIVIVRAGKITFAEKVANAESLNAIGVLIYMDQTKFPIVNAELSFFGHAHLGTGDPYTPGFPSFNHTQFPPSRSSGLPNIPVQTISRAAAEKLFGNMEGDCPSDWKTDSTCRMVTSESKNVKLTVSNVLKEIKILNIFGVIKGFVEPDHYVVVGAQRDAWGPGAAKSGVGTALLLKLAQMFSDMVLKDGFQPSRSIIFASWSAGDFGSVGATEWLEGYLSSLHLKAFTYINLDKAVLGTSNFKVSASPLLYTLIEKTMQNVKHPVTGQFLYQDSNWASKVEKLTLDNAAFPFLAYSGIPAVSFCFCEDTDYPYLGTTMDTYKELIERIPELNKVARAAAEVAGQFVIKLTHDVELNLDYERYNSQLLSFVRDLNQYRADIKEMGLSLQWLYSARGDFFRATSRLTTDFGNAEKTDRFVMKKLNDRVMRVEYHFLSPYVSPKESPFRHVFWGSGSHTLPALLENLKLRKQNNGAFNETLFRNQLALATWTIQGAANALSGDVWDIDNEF

CCC(=O)N[C@@H]1CSSC(C)(C)[C@@H](C(=O)NCC(=O)NCC(=O)NCC(=O)N[C@@H](CCCCN)C(=O)N[C@@H](CCC(=O)O)C(=O)N[C@H](C(=O)N[C@@H](C)C(=O)N[C@@H](C)C(=O)N[C@@H](C)C(=O)N[C@@H](CCCCN)C(=O)N[C@@H](Cc2ccccc2)C(=O)N[C@@H](CCC(=O)O)C(=O)N[C@@H](CCCNC(=N)N)C(=O)N[C@@H](CCC(N)=O)C(=O)N[C@@H](Cc2c[nH]cn2)C(=O)N[C@@H](CCSC)C(=O)N[C@@H](CC(=O)O)C(=O)N[C@@H](CO)C(N)=O)[C@@H](C)O)NC(=O)CNC(=O)[C@H](CCCNC(=N)N)NC(=O)[C@H](CC(C)C)NC(=O)[C@H](CCCNC(=N)N)NC(=O)[C@@H]2CSCN2C(=O)[C@H](CCSC)NC1=O
co-localization with hTfR (hTfR): No co-localization

CCC(=O)N[C@@H](CC(C)C)C(=O)N[C@@H](CCCNC(=N)N)C(=O)N[C@@H](CCCCN)C(=O)N[C@@H](CC(C)C)C(=O)N[C@@H](CCCNC(=N)N)C(=O)N[C@@H](CCCCN)C(=O)N[C@@H](CCCNC(=N)N)C(=O)N[C@@H](CC(C)C)C(=O)N[C@@H](CC(C)C)C(=O)N[C@@H](CC(C)C)C(=O)N[C@@H](CCCNC(=N)N)C(=O)N[C@@H](CCCCN)C(=O)N[C@@H](CC(C)C)C(=O)N[C@@H](CCCNC(=N)N)C(=O)N[C@@H](CCCCN)C(=O)N[C@@H](CCCNC(=N)N)C(=O)N[C@@H](CC(C)C)C(=O)N[C@@H](CC(C)C)C(=O)NCC(=O)NCC(=O)NCC(=O)N[C@@H](CCCCN)C(=O)N[C@@H](CCC(=O)O)C(=O)N[C@H](C(=O)N[C@@H](C)C(=O)N[C@@H](C)C(=O)N[C@@H](C)C(=O)N[C@@H](CCCCN)C(=O)N[C@@H](Cc1ccccc1)C(=O)N[C@@H](CCC(=O)O)C(=O)N[C@@H](CCCNC(=N)N)C(=O)N[C@@H](CCC(N)=O)C(=O)N[C@@H](Cc1c[nH]cn1)C(=O)N[C@@H](CCSC)C(=O)N[C@@H](CC(=O)O)C(=O)N[C@@H](CO)C(N)=O)[C@@H](C)O [ApoE2-S-Tag] (Propionyl-LRKLRKRLLLRKLRKRLLGGGKETAAAKFERQHMDS-NH2)
percentage of hLDLR that co-localized with the S-Tag peptide (hLDLR): under 10%

Propionyl-SVIDALQYKLEGTTRLTRKRGLKLATALSLSNKFVEGSGGGKETAAAKFERQHMDS-NH2 [ApoB-S-Tag]
percentage of hLDLR that co-localized with the S-Tag peptide (hLDLR): under 10%

hIgG1Fc-SMCC- (Pr- cRPLGRMC-G-(CH2)2-S)2 (disulfide) [(VH4Sc)2-Fc, human IgG1-Fc chemically conjugated to scrambled VH4Sc peptide via sulfo-SMCC]
Fc labeling in adrenal gland zona fasciculata (mLDLR): no Fc labeling
